Laboratory results published in US10538487B2, “Sulfonylureas and related compounds and use of same” (priority 2015, dated 2020).
Where two headings read alike, the source gives them in different places.

Molecular target: NLRP3 inflammasome (Homo sapiens, UniProt Q96P20)
Experiment: Inhibition of IL-1β release, NLRP3 inflammasome activation assay in HMDM
Assay type: cell-based
Protocol: The following assays can be used to determine inhibitory activity of test compounds on the NLRP3 inflammasome using common stimuli such as adenosine triphosphate, nigericin, LeuLeu-OMe or monosodium urate crystals (MSU).
To generate HMDM, human monocytes are isolated from buffy coat blood using Ficoll-Plaque Plus (GE Healthcare) and density centrifugation. CD14^+ cell selection is performed using MACS magnetic beads (Miltenyl Biotec).
HMDM are seeded at 1×10^5/ml. […] Medium is removed and replaced with serum free medium (SFM) containing test compound 30 min prior to NLRP3 stimulation. […] ATP can be sourced from Sigma Aldrich, nigericin and MSU from Invivogen and LeuLeu-Ome from Chem-Impex International.
For ELISA and cell death assays cells are seeded in 96 well plates. Supernatants are removed and analysed using ELISA kits according to the manufacturer's instructions (DuoSet® R&D Systems, ReadySetGo!® eBioscience, BD OptEIA™, or Perkin Elmer AlphaLISA®). Cell death is assessed by measurement of LDH release relative to a 100% cell lysis control using the CytoTox96® non-radioactive cytotoxicity assay (Promega).

[1] = inhibition of IL-1β release, class symbols, read-out: Avg. IL-1β IC50 HMDM

NLRP3 inflammasome, sequence (Q96P20 whole entry): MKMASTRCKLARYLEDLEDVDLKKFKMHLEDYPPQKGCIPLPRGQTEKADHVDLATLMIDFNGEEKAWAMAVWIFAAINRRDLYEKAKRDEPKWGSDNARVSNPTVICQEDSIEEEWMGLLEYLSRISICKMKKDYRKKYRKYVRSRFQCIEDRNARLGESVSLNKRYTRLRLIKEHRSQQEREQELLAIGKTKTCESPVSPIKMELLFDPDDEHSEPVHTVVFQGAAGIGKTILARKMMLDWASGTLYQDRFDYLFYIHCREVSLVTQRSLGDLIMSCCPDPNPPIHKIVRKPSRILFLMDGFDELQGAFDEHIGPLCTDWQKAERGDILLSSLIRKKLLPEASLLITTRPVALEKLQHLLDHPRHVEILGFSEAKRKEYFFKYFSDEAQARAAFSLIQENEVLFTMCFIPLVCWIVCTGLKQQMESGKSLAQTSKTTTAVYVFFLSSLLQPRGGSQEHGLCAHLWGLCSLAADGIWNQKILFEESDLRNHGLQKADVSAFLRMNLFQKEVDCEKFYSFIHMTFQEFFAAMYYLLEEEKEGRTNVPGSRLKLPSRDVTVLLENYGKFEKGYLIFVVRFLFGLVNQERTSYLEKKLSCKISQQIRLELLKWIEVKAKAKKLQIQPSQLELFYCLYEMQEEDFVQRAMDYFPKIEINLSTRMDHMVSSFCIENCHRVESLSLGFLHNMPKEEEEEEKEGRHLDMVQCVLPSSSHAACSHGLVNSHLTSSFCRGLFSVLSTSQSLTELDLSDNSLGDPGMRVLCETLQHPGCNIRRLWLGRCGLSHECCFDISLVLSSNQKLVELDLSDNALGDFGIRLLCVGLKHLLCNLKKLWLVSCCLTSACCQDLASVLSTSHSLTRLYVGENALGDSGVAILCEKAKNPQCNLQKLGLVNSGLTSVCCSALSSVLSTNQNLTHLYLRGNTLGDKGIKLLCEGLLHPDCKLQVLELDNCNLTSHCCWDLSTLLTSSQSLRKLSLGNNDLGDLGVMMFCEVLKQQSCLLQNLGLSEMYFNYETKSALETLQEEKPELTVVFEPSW

SMILES: O=C(Nc1c2c(cc3c1CCC3)CCC2)NS(=O)(=O)c1cccc(C(=O)O)c1 [3-(N-((1,2,3,5,6,7-hexahydro-s-indacen-4-yl)carbamoyl)sulfamoyl)benzoic acid]
- IC50 [1]: < 100 nM

SMILES: O=C(Nc1c2c(cc3c1CCC3)CCC2)NS(=O)(=O)c1ccn(Cc2ccccc2)n1 [1-benzyl-N-((1,2,3,5,6,7-hexahydro-s-indacen-4-yl)carbamoyl)-1H-pyrazole-3-sulfonamide]
- IC50 [1]: < 10000 nM

SMILES: CC(c1ccccc1)n1ccc(S(=O)(=O)NC(=O)Nc2c3c(cc4c2CCC4)CCC3)n1 (stereo not shown) [N-((1,2,3,5,6,7-hexahydro-s-indacen-4-yl)carbamoyl)-1-(1-phenylethyl)-1H-pyrazole-3-sulfonamide]
- IC50 [1]: < 1000 nM

SMILES: Cc1cc(C2CC2)nc(NC(=O)NS(=O)(=O)c2cc(C(C)(C)O)co2)n1 [N-((4-cyclopropyl-6-methylpyrimidin-2-yl)carbamoyl)-4-(2-hydroxypropan-2-yl)furan-2-sulfonamide]
- IC50 [1]: < 1000 nM

SMILES: CN(CC(=O)NCCc1ccc(S(=O)(=O)NC(=O)Nc2c3c(cc4c2CCC4)CCC3)cc1)c1ccc([N+](=O)[O-])c2nonc12 [N-(4-(N-(1,2,3,5,6,7-Hexahydros-indacen-4-ylcarbamoyl)sulfamoyl)phenethyl)-2-(methyl(7-nitrobenzo[c][1,2,5]oxadiazol-4-yl)amino)acetamide]
- IC50 [1]: < 10000 nM

SMILES: O=C(Nc1c2c(cc3c1CCC3)CCC2)NS(=O)(=O)c1cccc(OC(F)F)c1 [3-(difluoromethoxy)-N-((1,2,3,5,6,7-hexahydro-s-indacen-4-yl)carbamoyl)benzenesulfonamide]
- IC50 [1]: < 1000 nM

SMILES: CC(C)(O)c1coc(S(=O)(=O)NC(=S)Nc2c3c(cc4c2CCC4)CCC3)c1 [N-((1,2,3,5,6,7-hexahydro-s-indacen-4-yl)carbamothioyl)-4-(2-hydroxypropan-2-yl)furan-2-sulfonamide]
- IC50 [1]: < 1000 nM

SMILES: CCC1=C(C)CN(C(=O)NCCc2ccc(S(N)(=O)=O)cc2)C1=O [Glimespiride precursor, reference compound]
- IC50 (commercial compounds (Table 9), read-out: HMDM IC50 vs NLRP3): > 200000 nM

SMILES: CC(C)(O)c1coc(S(=O)(=O)NC(=O)Nc2c3c(cc4c2C(O)CC4)CCC3)c1 (stereo not shown) [N-((3-hydroxy-1,2,3,5,6,7-hexahydro-s-indacen-4-yl)carbamoyl)-4-(2-hydroxypropan-2-yl)furan-2-sulfonamide]
- IC50 [1]: < 1000 nM

SMILES: COc1cc(NC(=O)NS(=O)(=O)c2cccc(C3(C(F)(F)F)N=N3)c2)c2ncccc2c1 [N-((6-methoxyquinolin-8-yl)carbamoyl)-3-(3-(trifluoromethyl)-3H-diazirin-3-yl)benzenesulfonamide]
- IC50 [1]: < 50000 nM

SMILES: CC(C)c1cc(Cl)cc(C(C)C)c1NC(=O)NS(=O)(=O)c1cnc2ccccc2c1 [N-((4-chloro-2,6-diisopropylphenyl)carbamoyl)quinoline-3-sulfonamide]
- IC50 [1]: < 100 nM

SMILES: C#CCCC(=O)Nc1cccc(S(=O)(=O)NC(=O)Nc2c3c(cc4c2CCC4)CCC3)c1 [N-(3-(N-((1,2,3,5,6,7-hexahydro-s-indacen-4-yl)carbamoyl)sulfamoyl)phenyl)pent-4-ynamide]
- IC50 [1]: < 1000 nM

SMILES: O=C(Nc1c2c(cc3c1CCC3)CCC2)NS(=O)(=O)c1ccn(C(F)(F)F)n1 [N-((1,2,3,5,6,7-hexahydro-s-indacen-4-yl)carbamoyl)-1-(trifluoromethyl)-1H-pyrazole-3-sulfonamide]
- IC50 [1]: < 100 nM

SMILES: O=C(Nc1c2c(cc3c1CCC3)CCC2)NS(=O)(=O)C1CCOCC1 [N-((1,2,3,5,6,7-hexahydro-s-indacen-4-yl)carbamoyl)tetrahydro-2H-pyran-4-sulfonamide]
- IC50 [1]: < 1000 nM

SMILES: CN(C)S(=O)(=O)c1cccc(S(=O)(=O)NC(=O)Nc2c3c(cc4c2CCC4)CCC3)c1 [N1-((1,2,3,5,6,7-hexahydro-s-indacen-4-yl)carbamoyl)-N3,N3-dimethylbenzene-1,3-disulfonamide]
- IC50 [1]: < 100 nM

SMILES: CC(C)c1cc(Cl)cc(C(C)C)c1NC(=O)NS(=O)(=O)c1cccc2ncccc12 [N-((4-chloro-2,6-diisopropylphenyl)carbamoyl)quinoline-5-sulfonamide]
- IC50 [1]: < 1000 nM
